Experimental data taken from patent US20190387739A1, “HERBICIDAL COMBINATION CONTAINING TRIAFAMONE AND INDAZIFLAM” (Bayer CropScience Aktiengesellschaft, priority 2016, published 2019).

Legend:
Assay type in all cases: in vivo
[1] = system: Lolium rigidum; assay: Greenhouse post-emergence herbicidal effect against Lolium rigidum; settings: 216 h, 9 DAA, read-out: % Efficacy; for Emax at 10 g/ha: individual application 10 g of AS/ha; for Emax at 20 g/ha: individual application 20 g of AS/ha
Experimental: (§1) Post-emergence action against weeds
(§2) Seeds or rhizome pieces of mono- and dicotyledonous harmful plants and of crop plants were placed in sandy loam in plastic pots having a diameter of 4 cm, covered with soil and cultivated in a greenhouse under good growth conditions.
(§3) Ten to twenty days after sowing, the test plants were treated at the one- to three-leaf stage. The herbicide/active compound combinations according to the invention (mixture applications) formulated as suspensions and, in parallel tests, the correspondingly formulated individual active compounds (individual applications) were then sprayed onto the green parts of the plants in various dosages at a water application rate of 300 I/ha (converted).
(§4) After the test plants had been kept in the greenhouse under optimum growth conditions for a certain period of time (DAA, days after application), the herbicidal activity was assessed visually by comparison of treated and untreated plants. The percentages mean: 0%=no herbicidal activity, 100%=the plants die off completely.
(§5) The percentages from the treatments with the herbicides alone (individual applications) and with the combinations according to the invention (mixture applications) were employed to calculate interactions using the method of Colby. When the observed efficacies of the mixture applications exceed the formal sum of the values of the tests with individual applications, they also exceed the expected value according to Colby, which is calculated using the formula below (cf. S. R. Colby; in Weeds 15 (1967) pp. 20 to 22):
(§6) Here: • A, B=activity of component A (triafamone) or B (indaziflam) in percent at a dosage of a and b, respectively, in g of AS/ha (gram of active substance per hectare). • exp. expected value in % at a dosage of a+b g of ai/ha. • b) Results
(§7) The abbreviations in the tables below have the following meanings: • DAA=days after application • g of AS/ha=grams of active substance per hectare • % efficacy=herbicidal effect in percent • meas.=measured values • exp.=expected values according to Colby (calculation: see above) • syn.%=difference (%) of measured value from expected value (%) (measured value minus expected value)/

[2] = system: Zea mays; assay: Greenhouse post-emergence herbicidal effect against Zea mays; settings: 408 h, 17 DAA, read-out: % Efficacy; for Emax at 10 g/ha: individual application 10 g of AS/ha
Experimental: as §1, §2, §3, §4, §5, §6, §7

[3] = system: Viola tricolor; assay: Greenhouse post-emergence herbicidal effect against Viola tricolor; settings: 408 h, 17 DAA, read-out: % Efficacy; for Emax at 5 g/ha: individual application 5 g of AS/ha
Experimental: as §1, §2, §3, §4, §5, §6, §7

[4] = system: Glycine max; assay: Greenhouse post-emergence herbicidal effect against Glycine max; settings: 408 h, 17 DAA, read-out: % Efficacy; for Emax at 10 g/ha: individual application 10 g of AS/ha
Experimental: as §1, §2, §3, §4, §5, §6, §7

[5] = system: Avena fatua; assay: Greenhouse post-emergence herbicidal effect against Avena fatua; settings: 408 h, 17 DAA, read-out: % Efficacy
Experimental: as §1, §2
(§8) Ten to twenty days after sowing, the test plants were treated at the one- to three-leaf stage. […]
(§9) After the test plants had been kept in the greenhouse under optimum growth conditions for a certain period of time (DAA, days after application), the herbicidal activity was assessed visually by comparison of treated and untreated plants. […]
as §5, with “22): […]” for “22):”

[6] = system: Alopecurus myosuroides; assay: Greenhouse post-emergence herbicidal effect against Alopecurus myosuroides; settings: 408 h, 17 DAA, read-out: % Efficacy; for Emax at 5 g/ha: individual application 5 g of AS/ha
Experimental: as §1, §2, §3, §4, §5, §6, §7

[7] = system: Hordeum murinum; assay: Greenhouse post-emergence herbicidal effect against Hordeum murinum; settings: 408 h, 17 DAA, read-out: % Efficacy; for Emax at 20 g/ha: individual application 20 g of AS/ha
Experimental: as §1, §2, §3, §4, §5, §6, §7

[8] = system: Triticum aestivum; assay: Greenhouse post-emergence herbicidal effect against Triticum aestivum; settings: 216 h, 9 DAA, read-out: % Efficacy; for Emax at 5 g/ha: individual application 5 g of AS/ha; for Emax at 10 g/ha: individual application 10 g of AS/ha; for Emax at 20 g/ha: individual application 20 g of AS/ha
Experimental: as §1, §2, §3, §4, §5, §6, §7

[9] = system: mono- and dicotyledonous harmful plants and crop plants; assay: Greenhouse trials, discussion of the results over all test plants; settings: at the dosages tested, post-emergence
Experimental: as §1, §2, §8, §9
as §5, with “22): […]” for “22):”

[10] = individual application 20 g of AS/ha
[11] = individual application 5 g of AS/ha
[12] = individual application 10 g of AS/ha
[13] = individual application 2.5 g of AS/ha

| SMILES | Emax at 10 g/ha [1] [%] | Emax at 20 g/ha [1] [%] | Emax at 10 g/ha [2] [%] | Emax at 5 g/ha [3] [%] | Emax at 10 g/ha [4] [%] | Emax at 5 g/ha [6] [%] | Emax at 20 g/ha [7] [%] | Emax at 5 g/ha [8] [%] | Emax at 10 g/ha [8] [%] | Emax at 20 g/ha [8] [%] | further results |
| --- | --- | --- | --- | --- | --- | --- | --- | --- | --- | --- | --- |
| Cc1ccc2c(c1)[C@H](Nc1nc(N)nc(C(C)F)n1)[C@@H](C)C2 (stereo partly drawn) [indaziflam] | 63 | 70 | 0 | 80 | 73 | 15 | 40 | 23 | 23 | 48 | Emax at 20 g/ha [2, 10]: 25%; Emax at 5 g/ha [4, 11]: 50%; Emax at 5 g/ha [5, 11]: 10%; Emax at 10 g/ha [6, 12]: 60%; Emax at 20 g/ha [6, 10]: 75%; Emax at 40 g/ha ([8]; individual application 40 g of AS/ha): 63% |
| COc1nc(OC)nc(C(=O)c2cccc(F)c2N(C)S(=O)(=O)C(F)F)n1 [triafamone] | 0 | 18 | 0 | 0 | 0 | 50 | 0 | 0 | 0 | 13 | Emax at 2.5 g/ha [1, 13]: 0%; Emax at 5 g/ha [1, 11]: 0%; Emax at 2.5 g/ha [2, 13]: 0%; Emax at 5 g/ha [2, 11]: 0%; Emax at 2.5 g/ha [3, 13]: 0%; Emax at 10 g/ha [3, 12]: 0%; Emax at 2.5 g/ha [4, 13]: 0%; herbicidal efficacy as individual herbicide [9]: frequently ineffective; Emax at 10 g/ha [5, 12]: 0%; Emax at 2.5 g/ha [6, 13]: 25%; Emax at 2.5 g/ha [7, 13]: 0%; Emax at 5 g/ha [7, 11]: 0%; Emax at 2.5 g/ha [8, 13]: 0% |
